Measured values reported in patent US20200297798A1, “KEY AMINO ACID SITES […] EXPORT OF NUC[…] INFLUENZA A AND B VIRUSES AND USE THEREOF AS ANTI-INFLUENZA VIRUS DRUG TARGETS” (INSTITUTE OF MICROBIOLOGY, CHINESE ACADEMY OF SCIENCES, priority 2017, published 2020).
Values joined by “and” are separate entries in the source; they are usually repeats but may differ in a detail not shown here. Equal values may be shown once. Read-outs that look alike come from different tables or passages of the source.

What was measured:
influenza B virus Lee40 [1] = test system: influenza B virus Lee40; set-up: species or system BALB/c mice; conditions: mouse, in vivo
influenza B virus Lee40 [2] = conditions: A549 cells, MOI=1, 12 ng naproxen per dish, FIG. 8B
binding of ANP to CRM1 = binding of ANP to CRM1 (Influenza A virus, UniProt P15682)
[3] = biological target: influenza B virus nucleoprotein (BNP) (Influenza B virus, UniProt P04665); conditions: ITC; protein BNP
binding of BNP to CRM1 = binding of BNP to CRM1 (Influenza B virus, UniProt P04665)
[4] = biological target: influenza A virus nucleoprotein (ANP) (Influenza A virus, UniProt P15682); conditions: ITC; protein ANP
[5] = test system: influenza A virus WSN A/WSN/1933 (H1N1); set-up: species or system BALB/c mice; conditions: mouse, in vivo
[6] = test system: influenza A virus WSN A/WSN/1933 (H1N1); conditions: A549 cells, MOI=0.1, 12 ng naproxen per dish, FIG. 8A

Sequence of influenza B virus nucleoprotein (BNP) (P04665 whole entry): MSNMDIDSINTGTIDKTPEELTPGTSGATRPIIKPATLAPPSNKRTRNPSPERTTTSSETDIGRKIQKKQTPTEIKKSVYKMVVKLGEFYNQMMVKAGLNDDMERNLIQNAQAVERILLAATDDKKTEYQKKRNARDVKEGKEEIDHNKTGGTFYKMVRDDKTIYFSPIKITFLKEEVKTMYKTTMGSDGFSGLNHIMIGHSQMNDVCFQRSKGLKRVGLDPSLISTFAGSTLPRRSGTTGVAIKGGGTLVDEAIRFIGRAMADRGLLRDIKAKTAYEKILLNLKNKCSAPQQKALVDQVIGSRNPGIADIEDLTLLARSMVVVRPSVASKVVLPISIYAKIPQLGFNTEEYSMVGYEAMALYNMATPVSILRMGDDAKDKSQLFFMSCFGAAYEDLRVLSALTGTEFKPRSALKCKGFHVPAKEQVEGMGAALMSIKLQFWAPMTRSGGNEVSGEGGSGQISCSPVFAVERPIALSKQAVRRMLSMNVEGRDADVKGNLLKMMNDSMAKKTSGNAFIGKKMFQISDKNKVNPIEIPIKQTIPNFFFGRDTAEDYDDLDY
Sequence of influenza A virus nucleoprotein (ANP) (P15682 whole entry): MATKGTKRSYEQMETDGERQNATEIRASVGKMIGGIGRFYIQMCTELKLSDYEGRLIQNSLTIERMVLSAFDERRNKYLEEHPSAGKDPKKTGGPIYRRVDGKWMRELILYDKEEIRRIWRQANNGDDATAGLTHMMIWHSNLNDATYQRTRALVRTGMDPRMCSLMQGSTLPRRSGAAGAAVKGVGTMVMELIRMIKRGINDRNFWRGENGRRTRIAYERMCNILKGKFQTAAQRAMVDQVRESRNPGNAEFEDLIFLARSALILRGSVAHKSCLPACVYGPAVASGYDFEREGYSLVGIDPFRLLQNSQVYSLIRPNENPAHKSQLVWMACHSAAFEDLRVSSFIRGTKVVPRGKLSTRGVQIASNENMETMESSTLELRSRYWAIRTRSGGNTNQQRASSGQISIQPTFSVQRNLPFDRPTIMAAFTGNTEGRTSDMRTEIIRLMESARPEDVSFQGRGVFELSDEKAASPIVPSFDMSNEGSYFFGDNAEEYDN
Sequence of binding of BNP to CRM1 (P04665 whole entry): as the sequence (P04665 whole entry) above
Sequence of binding of ANP to CRM1 (P15682 whole entry): as the sequence (P15682 whole entry) above

Structure (SMILES) | body weight course after infection (influenza B virus Lee40 [1]) | lung injuries (macroscopical lesions) (influenza B virus Lee40 [1]) | viral load of the lung, treatment effect (influenza B virus Lee40 [1]) | survival rate (influenza B virus Lee40 [1]; ip) | virus titer versus untreated cells (influenza B virus Lee40 [2]) | binding of ANP to CRM1 (binding of ANP to CRM1) | n (stoichiometry) [3] | ΔH [3] | ΔS [3] | binding of BNP to CRM1 (binding of BNP to CRM1) | n (stoichiometry) [4] | ΔH [4] | ΔS [4] | body weight course after infection [5] | lung injuries (macroscopical lesions) [5] | viral load of the lung, treatment effect [5] | virus titer versus untreated cells [6] | survival rate (influenza B virus Lee40 [1]) | lung index (lung mass/body weight) [5] | survival rate [5]
COc1ccc2cc(C(C)C(=O)O)ccc2c1 (stereo not drawn) [naproxen, (+) α-methyl-6-methoxy-2-naphthaleneacetic acid] | slowly recovered | lung injuries were milder | better | 75% and 100% | significant decrease in virus titer | did not bind to CRM1 | 0.93 | -0.325 kcal/mol | 138.40 J/mol · K | did not bind to CRM1 | 1.23 | -1.33 kcal/mol | 64.76 J/mol · K | slowly recovered | lung injuries were milder | better | significant decrease in virus titer |  |  | 
CCOC(=O)C1=C[C@@H](OC(CC)CC)[C@H](NC(C)=O)[C@@H](N)C1 [oseltamivir] | slowly recovered |  |  |  |  |  |  |  |  |  |  |  |  | slowly recovered | lung injuries were milder | better |  | 37.5% | lung indexes were lower | 100%
